GI50 and IC50 data for two compounds are collected here from ChEMBL document CHEMBL1146524, “Isolation of homodolastatin 16, a new cyclic depsipeptide from a Kenyan collection of Lyngbya majuscula” (J Nat Prod, 2003).

Structures are written as SMILES. Values after ≈ are worked out from the molar mass of the structure shown. Starred links: 1 amine or outer side, 2 acyl side, 3 side chain; linkers in the order of their positions; H or OH if unused. Non-standard residues stand in square brackets, D forms with d. Residues, ends and D or L forms follow the SMILES beside them. X1 = CC(Cc1ccccc1)C(N[*:1])C(=O)[*:2]; X2 = CC(C)C(N[*:1])C(C)C(=O)[*:2]; dNMeV = CN[C@@H](C(=O)O)C(C)C; dHiv = CC(C)[C@@H](O)C(=O)O; Lac = C[C@H](O)C(=O)O

The test system of assay [1] is SK-MEL-5. The assay is described as follows: Cytotoxicity against human SK-MEL-5 cells after 48 hrs by MTT method. It counts as functional. The conditions noted are these: SK-MEL-5, 48 h.
In assay [2] the test system is NCI-H460. Nature of the assay: Cytotoxicity against human NCI-H460 cells after 48 hrs by MTT method. It counts as functional. The conditions noted are these: NCI-H460, 48 h.
The test system of assay [3] is KM-20L2. Nature of the assay: Cytotoxicity against human KM20L2 cells after 48 hrs by MTT method. It counts as functional. The note with it: KM-20L2, 48 h.
The subject of assay [4] is SF-295. The assay is described as follows: Cytotoxicity against human SF295 cells after 48 hrs by MTT method. The format is functional. The conditions noted are these: SF-295, 48 h.
Assay [5] is described as follows: Cytotoxicity against human WHCO1 cells after 48 hrs by MTT method. The format is functional, cell-based. The note with it: WHCO1, 48 h.
Assay [6] is described as follows: Cytotoxicity against human WHCO6 cells after 48 hrs by MTT method. The format is functional, cell-based. The conditions noted are these: WHCO6, 48 h.
Assay [7] relates to ME-180. The assay is described as follows: Cytotoxicity against human ME180 cells after 48 hrs by MTT method. It counts as functional, cell-based. The note with it: ME-180, 48 h.

With `CC(C)C1NC(=O)[C@@H]2CCCN2C(=O)C(C(C)Cc2ccccc2)NC(=O)[C@@H]2CCCN2C(=O)[C@@H](C(C)C)N(C)C(=O)[C@@H](C(C)C)OC(=O)[C@@H]2CCCN2C(=O)[C@H](C)OC(=O)C1C` (some centres not stated) [DOLASTATIN 16] (cyclo([Lac]P[dHiv][dNMeV]P[X1]P[X2])), the GI50 in assay [1] came to 3.3 ng/mL (≈ 3.75 nM); in assay [2], 0.96 ng/mL (≈ 1.09 nM); in assay [3] it was 1.2 ng/mL (≈ 1.37 nM); in assay [4] it was 5.2 ng/mL (≈ 5.92 nM).

On to `CC[C@H](C)[C@H]1C(=O)N2CCC[C@H]2C(=O)NC(C(C)Cc2ccccc2)C(=O)N2CCC[C@H]2C(=O)NC(C(C)C)C(C)C(=O)OC(C)C(=O)N2CCC[C@H]2C(=O)O[C@H](C(C)C)C(=O)N1C` (some centres not stated) [HOMODOLASTATIN 16], for which the IC50 in assay [5] came to 4300 ng/mL (≈ 4810 nM); in assay [6], 10100 ng/mL (≈ 11300 nM); in assay [7], 8300 ng/mL (≈ 9290 nM).
